From patent US11319306B2, “Compositions and methods for treating neurodegenerative diseases” (Azevan Pharmaceuticals, Inc., priority 2014, dated 2022)

Target: T1, human V1a receptor (Homo sapiens, UniProt P37288)
T1 construct: host or cells: CHO cells (hV1a cell line)
Assay: Human vasopressin V1a receptor binding assay (3H-AVP competition, hV1a CHO cells)
Conditions: 3H-AVP competition, CHO cells expressing human V1a; for Ki: read-out: V1a Ki; for IC50: read-out: V1a Binding Affinity IC50
Procedure: Human vasopression V1a receptor binding assay. A cell line expressing the human V1a receptor in CHO cells (henceforth referred to as the hV1a cell line) was obtained from Dr. Michael Brownstein, NIMH, Bethesda, Md., USA. The hV1a cDNA sequence is described by Thibonnier et al., Journal of Biological Chemistry, 269, 3304-3310 (1994), and the expression method was the same as described by Morel et al. (1992). The hV1a cell line was grown in alpha-MEM with 10% fetal bovine serum and 250 ug/ml G418 (Gibco, Grand Island, N.Y., USA). For competitive binding assay, hV1a cells were plated into 6-well culture plate at 1:10 dilution from a confluency flask, and maintained in culture for at least two days. Culture medium was then removed, cells were washed with 2 ml binding buffer (25 mM Hepes, 0.25% BSA, 1×DMEM, PH=7.0). To each well, 990 μl binding buffer containing InM 3H-AVP was added, and followed by 10 μl series diluted Example compounds dissolved in DMSO. […] 100 nM cold AVP (Sigma) was used to assess non-specific binding. Cells were incubated for 45 minutes at 37° C., assay mixture was removed and each well was washed three times with PBS (pH=7.4). 1 ml 2% SDS was added per well and plates were let sit for 30 minutes. The whole content in a well was transferred to a scintillation vial. Each well was rinsed with 0.5 ml PBS which was then added to the corresponding vial. Scintillation fluid (Ecoscint, National Diagnostics, Atlanta, Ga.) was then added at 3 ml per vial. Samples were counted in a liquid scintillation counter (Beckman LS3801). IC50 values were calculated by Prism Curve fitting software.
All of the alkanedioic esters and amides exemplified in the foregoing examples dissolved in DMSO were tested in this assay. Binding curves were generated according to methods described by Thibonnier et al. (1994). [^3H]-AVP was added to the hV1a cell cultures followed by 10-fold dilutions of each test compound.

T1 sequence (P37288 whole entry): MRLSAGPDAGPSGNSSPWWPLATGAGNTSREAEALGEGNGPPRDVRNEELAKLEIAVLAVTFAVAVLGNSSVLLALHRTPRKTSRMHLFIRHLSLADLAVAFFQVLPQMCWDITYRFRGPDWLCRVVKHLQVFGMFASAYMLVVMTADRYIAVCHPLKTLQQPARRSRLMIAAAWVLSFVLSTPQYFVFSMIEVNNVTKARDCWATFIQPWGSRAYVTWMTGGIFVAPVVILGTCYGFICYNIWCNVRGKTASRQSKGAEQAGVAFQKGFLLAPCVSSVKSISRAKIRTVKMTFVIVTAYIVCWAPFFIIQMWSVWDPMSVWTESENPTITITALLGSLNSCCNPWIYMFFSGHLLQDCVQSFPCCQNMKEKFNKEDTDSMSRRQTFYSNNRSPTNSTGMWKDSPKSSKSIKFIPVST

| Compound | Ki | IC50 |
| --- | --- | --- |
| O=C(NC1(c2cccc(F)c2)CCCC1)C(CCC(=O)N1CCN(C2CCCCC2)CC1)N1C(=O)C(N2C(=O)OCC2c2ccccc2)C1C=Cc1ccccc1 (stereo not shown) [Example 221AM] | 2.7 nM | – |
| CC(C)(C)OC(=O)NC1CCN(C2CCN(C(=O)CCC(C(=O)NC3(c4ccccc4)CCCC3)N3C(=O)C(N4C(=O)OCC4c4ccccc4)C3C=Cc3ccccc3)CC2)C1 (stereo not shown) [Example 221AX] | 51 nM | 83 nM |
| Cc1cccc(CN(C)C(=O)C(CCC(=O)N2CCN(C3CCCCC3)CC2)N2C(=O)C(N3C(=O)OCC3c3ccccc3)C2C=Cc2ccccc2)c1 (stereo not shown) [Example 221A] | 1.66 nM | 2.71 nM |
| CCN1CCN(C(=O)CCC(C(=O)NC2CCCc3ccccc32)N2C(=O)C(N3C(=O)OCC3c3ccccc3)C2C=Cc2ccccc2)CC1 (stereo not shown) [Example 221BD] | 1.66 nM | 2.7 nM |
| O=C(NC1CCCc2ccccc21)C(CCC(=O)N1CCN(CCCO)CC1)N1C(=O)C(N2C(=O)OCC2c2ccccc2)C1C=Cc1ccccc1 (stereo not shown) [Example 221BI] | 35 nM | 56 nM |
| CN(Cc1cccc(Cl)c1Cl)C(=O)C(CCC(=O)N1CCN(C2CCCCC2)CC1)N1C(=O)C(N2C(=O)OCC2c2ccccc2)C1C=Cc1ccccc1 (stereo not shown) [Example 221B] | 0.36 nM | 0.59 nM |
| CN(Cc1cccc(Cl)c1)C(=O)C(CCC(=O)N1CCN(C2CCCCC2)CC1)N1C(=O)C(N2C(=O)OCC2c2ccccc2)C1C=Cc1ccccc1 (stereo not shown) [Example 221C] | 1.84 nM | 3 nM |
| CN(Cc1cccc(Br)c1)C(=O)C(CCC(=O)N1CCN(C2CCCCC2)CC1)N1C(=O)C(N2C(=O)OCC2c2ccccc2)C1C=Cc1ccccc1 (stereo not shown) [Example 221D] | 1.48 nM | 2.41 nM |
| CN(Cc1cc(Cl)cc(Cl)c1)C(=O)C(CCC(=O)N1CCN(C2CCCCC2)CC1)N1C(=O)C(N2C(=O)OCC2c2ccccc2)C1C=Cc1ccccc1 (stereo not shown) [Example 221E] | 12.4 nM | 20.2 nM |
| C[C@@H](NC(=O)[C@H](CCC(=O)N1CCN(C2CCCCC2)CC1)N1C(=O)[C@@H](N2C(=O)OC[C@@H]2c2ccccc2)[C@H]1/C=C/c1ccccc1)c1cccc(C(F)(F)F)c1 [Example 221F] | 1.04 nM | 1.7 nM |
| O=C(NC1(c2ccccc2)CCCCC1)C(CCC(=O)N1CCN(C2CCCCC2)CC1)N1C(=O)C(N2C(=O)OCC2c2ccccc2)C1C=Cc1ccccc1 (stereo not shown) [Example 221G] | 0.93 nM | 1.5 nM |
| O=C(NC1(c2ccccc2F)CCCC1)C(CCC(=O)N1CCN(C2CCCCC2)CC1)N1C(=O)C(N2C(=O)OCC2c2ccccc2)C1C=Cc1ccccc1 (stereo not shown) [Example 221H] | 2.5 nM | 4 nM |
| O=C(NC1(c2ccc(F)cc2)CCCC1)C(CCC(=O)N1CCN(C2CCCCC2)CC1)N1C(=O)C(N2C(=O)OCC2c2ccccc2)C1C=Cc1ccccc1 (stereo not shown) [Example 221I] | 7.4 nM | 12 nM |
| O=C(CCC(C(=O)N1CCc2ccccc2C1)N1C(=O)C(N2C(=O)OCC2c2ccccc2)C1C=Cc1ccccc1)N1CCN(C2CCCCC2)CC1 (stereo not shown) [Example 221O] | 5.1 nM | 8.4 nM |
| O=C(NC(CCO)c1ccccc1)C(CCC(=O)N1CCN(C2CCCCC2)CC1)N1C(=O)C(N2C(=O)OCC2c2ccccc2)C1C=Cc1ccccc1 (stereo not shown) [Example 221Q] | 11.1 nM | 18.1 nM |
| O=C(NC1CCc2ccccc21)C(CCC(=O)N1CCN(C2CCCCC2)CC1)N1C(=O)C(N2C(=O)OCC2c2ccccc2)C1C=Cc1ccccc1 (stereo not shown) [Example 221S] | 3.08 nM | 5.03 nM |
| O=C(CCC(C(=O)NC1CCCc2ccccc21)N1C(=O)C(N2C(=O)OCC2c2ccccc2)C1C=Cc1ccccc1)NCCN1CCCCC1 (stereo not shown) [Example 221X] | 7.2 nM | 11.6 nM |
| O=C(NC1CCCc2ccccc21)C(CCC(=O)N1CCCC1CN1CCCC1)N1C(=O)C(N2C(=O)OCC2c2ccccc2)C1C=Cc1ccccc1 (stereo not shown) [Example 221Y] | 4.7 nM | 7.6 nM |
| O=C(NCc1cccc(C(F)(F)F)c1)C(CCC(=O)N1CCN(C2CCCCC2)CC1)N1C(=O)C(N2C(=O)OCC2c2ccccc2)C1C(Cl)=Cc1ccccc1 (stereo not shown) [Example 226] | 0.3 nM | 0.49 nM |
